Five molecules from patent US11207312B2, “Metallo-beta-lactamase inhibitors and methods of use thereof” (priority 2017, dated 2021) can be followed below.

The target of one series is NDM-1 (Klebsiella pneumoniae, UniProt C7C422). Put plainly: biochemical. The class given is biochemical. To be noted: CCF2-FA fluorescence assay, 2 hours at 25° C. In short, it runs like this:
(§1)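 Metallo-β-lactamase activity read by fluorescence against CCF2-FA (1.25 μM final) in 100 mM KH2PO4 pH 7 with 0.005% Tween-20 and 10 μM ZnSO4; enzyme final at 1 pM NDM-1, 2 pM IMP-1 or 30 pM VIM-1. Inhibitor at 20 to 0.00063 μM, 2 h at 25° C; IC50 by 4-parameter fit.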

In a further series the target is IMP-1 (Serratia marcescens, UniProt P52699). The experiment in a line: biochemical. As to conditions: CCF2-FA fluorescence assay, 2 hours at 25° C.; read-out: IMP1 IC50. An outline of the steps:
as §1

The next series addresses VIM-1 (Pseudomonas aeruginosa (strain ATCC 15692 / DSM 22644 / CIP 104116 / JCM 14847 / LMG 12228 / 1C / PRS 101 / PAO1), UniProt A0A0F7KYQ8). The experiment in a line: biochemical. To be noted: CCF2-FA fluorescence assay, 2 hours at 25° C.; read-out: VIM1 IC50. An outline of the steps: as §1
The target in another series is VIM-2 (Escherichia coli, UniProt Q5U7L7). The experiment in a line: biochemical. To be noted: CCF2-FA fluorescence assay; read-out: VIM2 IC50.
The subject of series [1] is Escherichia coli expressing NDM-1 (CLB30016). It is filed as cell-based. To be noted: with imipenem 1 μg/ml; 95% inhibition of bacterial growth. An outline of the steps: (§2)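 Colonies from sheep-blood agar plates are resuspended in saline, then diluted 1:100 in 1.1× CAMHB. Bacteria receive imipenem (1 μg/ml) and test compound, then incubate 22–24 h at 35 °C. Potentiation is reported as MITC95 from absorbance.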

Series [2] has as its system Klebsiella pneumoniae expressing VIM-1 (IHMA599644). The class given is cell-based. As to conditions: with imipenem 1 μg/ml; 95% inhibition of bacterial growth. In short, it runs like this:
as §2

The test system of series [3] is Serratia marcescens expressing IMP-1 (CL5741). The class given is cell-based. To be noted: with imipenem 1 μg/ml; 95% inhibition of bacterial growth. In short, it runs like this:
as §2

For series [4], the system named is P. aeruginosa MB9798 (efflux+, IMP-1 plasmid). As to conditions: for MB9798 MITC95 P. aeruginosa uM Efflux WT: efflux + (MB9798) strain, imipenem at 2 μg/mL, in the presence of a class A, C, D serine β-lactamase inhibitor closely related to relebactam; for Efflux ratio: fold difference between efflux+ (MB9798) and efflux− (MB9799) strains. An outline of the steps:
(§3)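 PAO1-derived isogenic pair (oprD+, inducible AmpC), efflux+ MB5919 or efflux− MB5890 parent, carrying an electroporated IMP-1 plasmid from a clinical isolate. Microbroth MIC with fixed imipenem and/or ceftazidime (usually CLSI breakpoint) plus fixed class A/C inhibitor; MBL inhibitor serially titrated, concentration restoring susceptibility recorded.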

The test system of series [5] is P. aeruginosa MB9799 (efflux-, IMP-1 plasmid). It is filed as cell-based, Pseudomonas aeruginosa. As to conditions: efflux − (MB9799) strain; imipenem at 2 μg/mL; in the presence of a class A, C, D serine β-lactamase inhibitor closely related to relebactam. An outline of the steps:
as §3

NDM-1, sequence (C7C422 whole entry, looked up, species assumed): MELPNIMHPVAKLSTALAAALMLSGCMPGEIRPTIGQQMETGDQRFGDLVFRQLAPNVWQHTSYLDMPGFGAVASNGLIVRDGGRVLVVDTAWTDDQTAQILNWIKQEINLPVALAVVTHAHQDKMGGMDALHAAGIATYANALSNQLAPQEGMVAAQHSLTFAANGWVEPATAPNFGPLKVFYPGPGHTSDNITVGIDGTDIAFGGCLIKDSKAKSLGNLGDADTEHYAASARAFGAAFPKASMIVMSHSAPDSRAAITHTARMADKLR
IMP-1, sequence (P52699 whole entry, looked up, species assumed): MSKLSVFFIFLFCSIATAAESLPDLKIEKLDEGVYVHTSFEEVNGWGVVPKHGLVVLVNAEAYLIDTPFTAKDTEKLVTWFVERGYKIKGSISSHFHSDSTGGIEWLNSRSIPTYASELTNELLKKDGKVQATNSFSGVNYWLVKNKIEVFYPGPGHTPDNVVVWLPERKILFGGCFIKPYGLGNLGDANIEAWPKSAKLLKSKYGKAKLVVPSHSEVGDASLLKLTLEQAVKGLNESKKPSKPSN

For `NCC1CCN(c2ccc(S(=O)(=O)NC[C@@H](N)CN)c(S(N)(=O)=O)c2-c2nn[nH]n2)CC1` [Example 200, (S)-4-(4-(aminomethyl)piperidin-1-yl)-N1-(2,3-diaminopropyl)-3-(2H-tetrazol-5-yl)benzene-1,2-disulfonamide], the IC50 came to 3.1 nM at NDM-1, 4.57 nM at IMP-1, 0.51 nM on VIM-1 and 8.28 nM at VIM-2. Also, the “CLB30016 E. coli MITC95 NDM” value in [1] was 0.78 µM. In series [2], the “IHMA599644 K. pneumoniae MITC95 VIM” value came out at 3.13 µM. For the same molecule, the “CL5741 S. marcescens MITC95 IMP” value in [3] came to 1.56 µM. The “MB9798 MITC95 P. aeruginosa uM Efflux WT” value in series [4] worked out at 50.00 µM. Moreover, in [4], the Efflux ratio is given as 1.00. Moreover, in series [5], the “MB9799 MITC95 P. aeruginosa uM Efflux Mutant” value was 50.00 µM.

Turning to `CC(=O)N[C@@H]1CCN(c2ccc(S(=O)(=O)N[C@@H]3CCNC3)c(S(N)(=O)=O)c2-c2nnn[nH]2)C1` [Example 95, N-[(3R)-1-{4-[(3R)-pyrrolidin-3-ylsulfamoyl]-3-sulfamoyl-2-(1H-tetrazol-5-yl)phenyl}pyrrolidin-3-yl]acetamide], the IC50 on NDM-1 is 4.31 nM; at IMP-1, 1.55 nM; at VIM-1, 1.42 nM; at VIM-2 it was 6.09 nM. Also, in series [1], the “CLB30016 E. coli MITC95 NDM” value was determined as 6.25 µM. Further, in series [2], the “IHMA599644 K. pneumoniae MITC95 VIM” value was found to be 12.50 µM. Also, the “CL5741 S. marcescens MITC95 IMP” value in series [3] stood at 6.25 µM. Besides, in [4], the “MB9798 MITC95 P. aeruginosa uM Efflux WT” value turned out to be 6.25 µM. For the same molecule, in series [4], the Efflux ratio stood at 2.00. Further, the “MB9799 MITC95 P. aeruginosa uM Efflux Mutant” value in series [5] was 3.13 µM.

As to `NCCNS(=O)(=O)c1ccc(N2CCC(CO)CC2)c(-c2nnn[nH]2)c1S(N)(=O)=O` [Example 43, N1-(2-aminoethyl)-4-(4-(hydroxymethyl)piperidin-1-yl)-3-(1H-tetrazol-5-yl)benzene-1,2-disulfonamide], the IC50 against NDM-1 was 0.51 nM; on IMP-1, 0.58 nM; at VIM-1, 0.19 nM; at VIM-2 it was 0.61 nM. Further, the “CLB30016 E. coli MITC95 NDM” value in [1] is 1.56 µM. Further, in [2], the “IHMA599644 K. pneumoniae MITC95 VIM” value stood at 6.25 µM. Also, the “CL5741 S. marcescens MITC95 IMP” value in series [3] worked out at 1.56 µM. Also, the “MB9798 MITC95 P. aeruginosa uM Efflux WT” value in series [4] worked out at 1.56 µM. For the same molecule, the Efflux ratio in series [4] is 1.00. For the same molecule, the “MB9799 MITC95 P. aeruginosa uM Efflux Mutant” value in series [5] amounted to 1.56 µM.

Take `NS(=O)(=O)c1c(S(=O)(=O)N[C@@H]2CCNC2)ccc(N2CCC(OCCO)CC2)c1-c1nnn[nH]1` [Example 88, 4-[4-(2-hydroxyethoxy)piperidin-1-yl]-N1-[(3R)-pyrrolidin-3-yl]-3-(1H-tetrazol-5-yl)benzene-1,2-disulfonamide]: the IC50 was 0.08 nM against NDM-1, 0.13 nM on IMP-1, 0.19 nM at VIM-1 and 0.97 nM at VIM-2. Besides, in [1], the “CLB30016 E. coli MITC95 NDM” value came to 12.50 µM. The “IHMA599644 K. pneumoniae MITC95 VIM” value in series [2] came out at 12.50 µM. Besides, the “CL5741 S. marcescens MITC95 IMP” value in series [3] stood at 12.50 µM. Besides, in series [4], the “MB9798 MITC95 P. aeruginosa uM Efflux WT” value worked out at 6.25 µM. Also, the Efflux ratio in series [4] came to 1.00. The “MB9799 MITC95 P. aeruginosa uM Efflux Mutant” value in series [5] came out at 6.25 µM.

Regarding `CN1CCOC2(C1)CN(c1ccc(S(=O)(=O)N[C@@H]3CCNC3)c(S(N)(=O)=O)c1-c1nnn[nH]1)C2` [Example 115, 4-(8-methyl-5-oxa-2,8-diazaspiro[3.5]non-2-yl)-N1-[(3R)-pyrrolidin-3-yl]-3-(1H-tetrazol-5-yl)benzene-1,2-disulfonamide], the IC50 on NDM-1 amounted to 6.14 nM; on IMP-1, 6.06 nM; on VIM-1, 2.1 nM; on VIM-2 it was 19.2 nM. Further, in series [1], the “CLB30016 E. coli MITC95 NDM” value is 0.39 µM. In addition, the “IHMA599644 K. pneumoniae MITC95 VIM” value in series [2] worked out at 3.13 µM. For the same molecule, the “CL5741 S. marcescens MITC95 IMP” value in series [3] is 0.78 µM. Besides, the “MB9798 MITC95 P. aeruginosa uM Efflux WT” value in [4] was 12.50 µM. The Efflux ratio in series [4] amounted to 16.00. Moreover, in series [5], the “MB9799 MITC95 P. aeruginosa uM Efflux Mutant” value was found to be 0.78 µM.
